Measured values as given in US20210155644A1, “CYCLOPENTENYL PURINE DERIVATIVE OR SALT THEREOF” (Fujifilm Corporation, priority 2018, published 2021).
Like-named read-outs stand apart in the source and are kept apart here.

System: adenovirus type 6 (ADV6)
Assay: Evaluation of anti-adenovirus activity: CRL-11516 cells infected with ADV6, anti-hexon staining, count of stained cells
Type: cell-based
Description: A system in which CRL-11516 cells (available from ATCC) were infected with adenovirus type 6 (hereinafter, referred to as ADV6) was constructed, and a test for evaluating the anti-adenovirus activity of the compound according to the embodiment of the present invention and the compound of Comparative Example was carried out using the system. The test for evaluating the anti-adenovirus activity was carried out according to the method described below.
CRL-11516 cells were added to a 96-well plate at a cell density of 1×10^4 cells/well and cultured at 37° C. for 24 hours. After the culture was completed, the cell culture liquid was removed, and a serial dilution (100 μL) of the compound according to the embodiment of the present invention or the compound of Comparative Example was added. ADV6 (corresponding to 50TCID50) was added thereto, followed by culturing at 37° C. for 48 hours.
After the culture was completed, the infected cells were stained using Adeno-X Rapid Titer Kit (manufactured by Takara Bio Inc.). 100% methanol was added thereto and the cells were fixed at −20° C. for 10 minutes. The plate was washed three times with phosphate buffered saline (hereinafter, referred to as PBS) and then Mouse Anti-Hexon Antibody was added thereto, followed by incubation at 37° C. for 1 hour. After the incubation was completed, the plate was washed three times with PBS, and Rat Anti-Mouse Antibody was added thereto, followed by incubation at 37° C. for 1 hour. After the incubation was completed, a mixed staining solution of Stable Peroxidase Buffer:DAB Substrate=10:1 was added thereto, followed by incubation at room temperature for 10 minutes for staining of the cells.
The number of dark brown-stained cells was counted under a microscope, and the concentration of the test drug that reduces the dark brown-stained cells by 50% was defined as EC50. EC50 values were calculated for the triplicate test results, and a mean value and a standard deviation thereof were determined.

[1] = CRL-11516 cells infected with ADV6, 48 hours culture, concentration reducing dark brown-stained cells by 50%; read-out: Anti-AdV activity EC50
[2] = Human mastadenovirus C, 48 h, CRL-11516 cells infected with ADV6, 48 hours culture, concentration reducing dark brown-stained cells by 50%; read-out: Anti-AdV activity EC50
[3] = Human mastadenovirus C; CRL-11516 cells infected with ADV6, 48 hours culture, concentration reducing dark brown-stained cells by 50%; read-out: Anti-AdV activity EC50

SMILES	EC50 [1] [nM]	EC50 [2] [nM]	also measured
COc1nc(N)nc2c1ncn2[C@H]1C=C[C@@H](COP(=O)(N[C@@H](C)C(=O)OC(C)C)Oc2ccc(Cl)cc2)C1 (single isomer, unassigned) [Example 4-8-1]	10 to 100	–	–
COc1nc(N)nc2c1ncn2[C@H]1C=C[C@@H](COP(=O)(N[C@@H](C)C(=O)OC(C)C)Oc2ccc(Cl)cc2)C1 (single isomer, unassigned) [Example 4-8-2]	< 10	–	–
COc1nc(N)nc2c1ncn2[C@H]1C=C[C@@H](COP(=O)(N[C@@H](CC(C)C)C(=O)OC(C)C)Oc2ccccc2)C1 (single isomer, unassigned) [Example 7-1-1]	10 to 100	–	–
COc1nc(N)nc2c1ncn2[C@H]1C=C[C@@H](COP(=O)(N[C@@H](CC(C)C)C(=O)OC(C)C)Oc2ccccc2)C1 (single isomer, unassigned) [Example 7-1-2]	100 to 1000	–	–
COC(=O)[C@H](C)NP(=O)(OC[C@@H]1C=C[C@H](n2cnc3c(OC)nc(N)nc32)C1)Oc1ccc(Cl)cc1 (stereo partly drawn) [Example 1-2-2, methyl ((((1S,4R)-4-(2-amino-6-methoxy-9H-purin-9-yl)cyclopent-2-en-1-yl)methoxy)(4-chlorophenoxy)phosphoryl)-L-alaninate]	–	< 10	–
COC(=O)[C@H](C)NP(=O)(OC[C@@H]1C=C[C@H](n2cnc3c(OC)nc(N)nc32)C1)Oc1ccc(Br)cc1 (stereo partly drawn) [Example 1-2-3, methyl ((((1S,4R)-4-(2-amino-6-methoxy-9H-purin-9-yl)cyclopent-2-en-1-yl)methoxy)(4-bromophenoxy)phosphoryl)-L-alaninate]	–	< 10	–
COC(=O)[C@H](C)NP(=O)(OC[C@@H]1C=C[C@H](n2cnc3c(Cl)nc(N)nc32)C1)Oc1ccc(Cl)cc1 (stereo partly drawn) [Example 1-2-4, methyl ((((1S,4R)-4-(2-amino-6-chloro-9H-purin-9-yl)cyclopent-2-en-1-yl)methoxy)(4-chlorophenoxy)phosphoryl)-L-alaninate]	< 10	–	–
COC(=O)[C@H](C)NP(=O)(OC[C@@H]1C=C[C@H](n2cnc3c(N)nc(N)nc32)C1)Oc1ccc(Br)cc1 (stereo partly drawn) [Example 1-2-6, Methyl ((4-bromophenoxy)(((1S,4R)-4-(2,6-diamino-9H-purin-9-yl)cyclopent-2-en-1-yl)methoxy)phosphoryl)-L-alaninate]	–	100 to 1000	–
COc1nc(N)nc2c1ncn2[C@H]1C=C[C@@H](COP(=O)(OCCSSCCOCc2ccccc2)OCCSSCCOCc2ccccc2)C1 [Example 1-2-8, ((1S,4R)-4-(2-amino-6-methoxy-9H-purin-9-yl)cyclopent-2-en-1-yl)methylbis(2-((2-(benzyloxy)ethyl)disulfanyl)ethyl)phosphate]	10 to 100	–	–
COC(=O)[C@H](C)NP(=O)(OCCSC(=O)C(C)(C)C)OC[C@@H]1C=C[C@H](n2cnc3c(OC)nc(N)nc32)C1 (stereo partly drawn) [Example 1-2-12, methyl ((((1S,4R)-4-(2-amino-6-methoxy-9H-purin-9-yl)cyclopent-2-en-1-yl)methoxy)(2-(pivaloylthio)ethoxy)phosphoryl)-L-alaninate]	–	–	EC50 [3]: < 10 nM
CCOC(=O)[C@H](C)NP(=O)(OC[C@@H]1C=C[C@H](n2cnc3c(OC)nc(N)nc32)C1)Oc1ccccc1 (stereo partly drawn) [Example 1-2-34, ethyl ((((1S,4R)-4-(2-amino-6-methoxy-9H-purin-9-yl)cyclopent-2-en-1-yl)methoxy)(phenoxy)phosphoryl)-L-alaninate]	–	10 to 100	–
COC(=O)[C@H](C)NP(=O)(OC[C@@H]1C=C[C@H](n2cnc3c(N(C)C)nc(N)nc32)C1)Oc1ccc(Br)cc1 (stereo partly drawn) [Example 1-2-45, Methyl ((((1S,4R)-4-(2-amino-6-(dimethylamino)-9H-purin-9-yl)cyclopent-2-en-1-yl)methoxy)(4-bromophenoxy)phosphoryl)-L-alaninate]	–	< 10	–
CNc1nc(N)nc2c1ncn2[C@H]1C=C[C@@H](COP(=O)(N[C@@H](C)C(=O)OC)Oc2ccc(Br)cc2)C1 (stereo partly drawn) [Example 1-2-46, Methyl ((((1S,4R)-4-(2-amino-6-(methylamino)-9H-purin-9-yl)cyclopent-2-en-1-yl)methoxy)(4-bromophenoxy)phosphoryl)-L-alaninate]	–	< 10	–
COC(=O)C(C)(C)NP(=O)(OC[C@@H]1C=C[C@H](n2cnc3c(OC)nc(N)nc32)C1)Oc1ccc(Br)cc1 (stereo partly drawn) [Example 1-2-49, Methyl 2-(((((1S,4R)-4-(2-amino-6-methoxy-9H-purin-9-yl)cyclopent-2-en-1-yl)methoxy)(4-bromophenoxy)phosphoryl)amino)-2-methylpropanoate]	–	< 10	–
COc1nc(N)nc2c1ncn2[C@H]1C=C[C@@H](COP(=O)(N[C@@H](C)C(=O)OC2CC2)Oc2ccccc2)C1 (stereo partly drawn) [Example 1-2-58, cyclopropyl ((((1S,4R)-4-(2-amino-6-methoxy-9H-purin-9-yl)cyclopent-2-en-1-yl)methoxy)(phenoxy)phosphoryl)-L-alaninate]	–	10 to 100	–
CC(C)OC(=O)[C@H](C)NP(=O)(OC[C@@H]1C=C[C@H](n2cnc3c(Cl)nc(N)nc32)C1)Oc1ccc(Cl)cc1 (stereo partly drawn) [Example 1-2-70, isopropyl ((((1S,4R)-4-(2-amino-6-chloro-9H-purin-9-yl)cyclopent-2-en-1-yl)methoxy)(4-chlorophenoxy)phosphoryl)-L-alaninate]	–	10 to 100	–
COc1nc(N)nc2c1ncn2[C@H]1C=C[C@@H](COP(=O)(N[C@@H](C)C(=O)OC(C)C)Oc2ccc(Cl)cc2)C1 (stereo partly drawn) [Example 1-2-72, isopropyl ((((1S,4R)-4-(2-amino-6-methoxy-9H-purin-9-yl)cyclopent-2-en-1-yl)methoxy)(4-chlorophenoxy)phosphoryl)-L-alaninate]	–	10 to 100	–
CC(C)OC(=O)[C@H](C)NP(=O)(OCCSC(=O)C(C)(C)C)OC[C@@H]1C=C[C@H](n2cnc3c(Cl)nc(N)nc32)C1 (stereo partly drawn) [Example 1-2-73, isopropyl ((((1S,4R)-4-(2-amino-6-chloro-9H-purin-9-yl)cyclopent-2-en-1-yl)methoxy)(2-(pivaloylthio)ethoxy)phosphoryl)-L-alaninate]	–	–	EC50 [3]: < 10 nM
COc1nc(N)nc2c1ncn2[C@H]1C=C[C@@H](COP(=O)(N[C@@H](C)C(=O)OC(C)C)OCCSC(=O)C(C)(C)C)C1 (stereo partly drawn) [Example 1-2-74, isopropyl ((((1S,4R)-4-(2-amino-6-methoxy-9H-purin-9-yl)cyclopent-2-en-1-yl)methoxy)(2-(pivaloylthio)ethoxy)phosphoryl)-L-alaninate]	–	–	EC50 [3]: 10 to 100 nM
Nc1nc2c(ncn2[C@H]2C=C[C@@H](CO)C2)c(=O)[nH]1 [Example 1]	–	–	EC50 [3]: 1000 to 10000 nM
COc1nc(N)nc2c1ncn2[C@H]1C=C[C@@H](COP(=O)(OCCSC(=O)C(C)(C)C)Oc2ccccc2)C1 (stereo partly drawn) [Example 2-1, S-(2-(((((1S,4R)-4-(2-amino-6-methoxy-9H-purin-9-yl)cyclopent-2-en-1-yl)methoxy)(phenoxy)phosphoryl)oxy)ethyl) 2,2-dimethylpropanethioate]	–	–	EC50 (read-out: Anti-AdV activity EC50; CRL-11516 cells infected with ADV6, 48 hours culture, concentration reducing dark brown-stained cells by 50%): < 10 nM
CC(C)OC(=O)[C@H](C)NP(=O)(OC[C@@H]1C=C[C@H](n2cnc3c(Cl)nc(N)nc32)C1)Oc1ccccc1 (stereo partly drawn) [Example 2-2-1, isopropyl ((((1S,4R)-4-(2-amino-6-chloro-9H-purin-9-yl)cyclopent-2-en-1-yl)methoxy)(phenoxy)phosphoryl)-L-alaninate]	100 to 1000	–	–
CC(C)OC(=O)[C@H](C)NP(=O)(OC[C@@H]1C=C[C@H](n2cnc3c(NC4CC4)nc(N)nc32)C1)Oc1ccccc1 (stereo partly drawn) [Example 2-2-2, Isopropyl ((((1S,4R)-4-(2-amino-6-(cyclopropyl-amino)-9H-purin-9-yl)cyclopent-2-en-1-yl)methoxy) (phenoxy)phosphoryl)-L-alaninate]	–	100 to 1000	–
COC(=O)[C@H](C)NP(=O)(OC[C@@H]1C=C[C@H](n2cnc3c(NC4CC4)nc(N)nc32)C1)Oc1ccccc1 (stereo partly drawn) [Example 2-2-3, Methyl ((((1S,4R)-4-(2-amino-6-(cyclopropyl-amino)-9H-purin-9-yl)cyclopent-2-en-1-yl)methoxy) (phenoxy)phosphoryl)-L-alaninate]	–	10 to 100	–
COC(=O)[C@H](C)NP(=O)(OC[C@@H]1C=C[C@H](n2cnc3c(Cl)nc(N)nc32)C1)Oc1ccccc1 (stereo partly drawn) [Example 2-2-7, Methyl ((((1S,4R)-4-(2-amino-6-chloro-9H-purin-9-yl)cyclopent-2-en-1-yl)methoxy) (phenoxy)phosphoryl)-L-alaninate]	–	10 to 100	–
COc1nc(N)nc2c1ncn2[C@H]1C=C[C@@H](COP(=O)(N[C@@H](C)C(=O)OC(C)C)Oc2ccccc2)C1 (stereo partly drawn) [Example 2-2-12, isopropyl ((((1S,4R)-4-(2-amino-6-methoxy-9H-purin-9-yl)cyclopent-2-en-1-yl)methoxy)(phenoxy)phosphoryl)-L-alaninate]	100 to 1000	–	–
